Source: patent publication US20230049952A1, “METHODS AND COMPOUNDS FOR RESTORING MUTANT P53 FUNCTION” (PMV Pharmaceuticals, Inc., priority 2020, published 2023)
Where “and” joins values, the source holds several entries; their conditions need not be identical. Equal entries are not always repeated.

Experiment: Compound 2 and metabolites in rat plasma, 50 mg/kg PO QD×10
Format: in vivo
Settings: for Average Concentration: rat plasma
Description: The proposed metabolite pathway was determined in vitro, and levels of potential metabolites were measured by LC/MS-MS in rat plasma remaining from the dose rising 10-day repeat dose study in rats. Six potential metabolites were quantified in the low (50 mg/kg) single dose rats. […] Rats were rotated between timepoints to form a composite PK curve. […] A 100 μL aliquot of the supernatant was transferred to the sample plate and mixed with 100 μL of water, then the plate was shaken at 800 rpm for 10 min. 0.5-2 μL supernatant was then injected into a Triple Quad 6500+ for LC-MS/MS analysis. The standard curve was generated at 1-3000 ng/mL for the compounds in rat plasma (EDTA-K2).
The male and female PK parameters were averaged together since there was <2-fold variation between the genders. All values deemed below the level of quantification (BLQ) were excluded from the PK parameters calculations.

[1] = Compound 2 50 mg/kg PO QD×1, 1 h, 50 mg/kg
[2] = Compound 2 50 mg/kg PO QD×1, 2 h, 50 mg/kg
[3] = Compound 2 50 mg/kg PO QD×1, 4 h, 50 mg/kg
[4] = Compound 2 50 mg/kg PO QD×1, 8 h, 50 mg/kg
[5] = Compound 2 50 mg/kg PO QD×1, 24 h, 50 mg/kg
[6] = Compound 2 50 mg/kg PO QD×10, 1 h post tenth dose, 50 mg/kg
[7] = Compound 2 50 mg/kg PO QD×10, 2 h post tenth dose, 50 mg/kg
[8] = Compound 2 50 mg/kg PO QD×10, 4 h post tenth dose, 50 mg/kg
[9] = Compound 2 50 mg/kg PO QD×10, 8 h post tenth dose, 50 mg/kg
[10] = Compound 2 50 mg/kg PO QD×10, 24 h post tenth dose, 50 mg/kg
[11] = Compound 2 50 mg/kg PO QD×10, 48 h post tenth dose, 50 mg/kg
[12] = Compound 2 50 mg/kg PO QD×10, 72 h post tenth dose
[13] = Compound 2 50 mg/kg PO QD×10, 96 h post tenth dose
[14] = Day 1, of Compound 2 AUC0-24, rat, 50 mg/kg PO
[15] = Day 1, rat, Compound 2 50 mg/kg PO
[16] = Day 10, of Compound 2 AUC0-last, rat, 50 mg/kg PO QD×10
[17] = Day 10, rat, Compound 2 50 mg/kg PO QD×10
[18] = Compound 2 50 mg/kg PO QD×1, 1 h
[19] = Compound 2 50 mg/kg PO QD×1, 2 h
[20] = Compound 2 50 mg/kg PO QD×1, 4 h
[21] = Compound 2 50 mg/kg PO QD×1, 8 h
[22] = Compound 2 50 mg/kg PO QD×1, 24 h
[23] = Compound 2 50 mg/kg PO QD×10, 1 h post tenth dose
[24] = Compound 2 50 mg/kg PO QD×10, 2 h post tenth dose
[25] = Compound 2 50 mg/kg PO QD×10, 4 h post tenth dose
[26] = Compound 2 50 mg/kg PO QD×10, 8 h post tenth dose
[27] = Compound 2 50 mg/kg PO QD×10, 24 h post tenth dose
[28] = Compound 2 50 mg/kg PO QD×10, 48 h post tenth dose
[29] = after single (first) 50 mg/kg PO dose of Compound 2
[30] = repeat 10 day administration of Compound 2, 50 mg/kg PO

SMILES	calculated concentration in rat plasma (individual rats) [1]	calculated concentration in rat plasma (individual rats) [2]	calculated concentration in rat plasma (individual rats) [3]	calculated concentration in rat plasma (individual rats) [4]	calculated concentration in rat plasma (individual rats) [5]	calculated concentration in rat plasma (individual rats) [6]	calculated concentration in rat plasma (individual rats) [7]	calculated concentration in rat plasma (individual rats) [8]	calculated concentration in rat plasma (individual rats) [9]	calculated concentration in rat plasma (individual rats) [10]	calculated concentration in rat plasma (individual rats) [11]	% of Parent [14] [%]	AUC0-24 [15] [ng·h/mL]	% of Parent [16] [%]	AUC0-last [17] [ng·h/mL]	Average Concentration [18] [ng/mL]	Average Concentration [19] [ng/mL]	Average Concentration [20] [ng/mL]	Average Concentration [21] [ng/mL]	Average Concentration [22] [ng/mL]	further results
CCn1c(C#CCNc2ccc(F)cc2)cc2cc(CNC3CCOCC3)ccc21 [Compound 6, 3-{1-Ethyl-5-[(tetrahydro-2H-pyran-4-ylmino)methyl]-1H-indol-2-yl}-1-(p-fluorophenylamino)-2-propyne]	–	–	–	–	–	–	–	–	–	–	–	–	–	–	–	–	–	–	–	–	AUC0-24 (rat, in vivo, po, 50 mg/kg): 377 ng·h/mL; AUC0-last (rat, in vivo, po, 50 mg/kg): 389 ng·h/mL
CCn1c(C#CCNc2ccc(C)nc2)cc2cc(CNC3CCOCC3)ccc21 [Compound 8, 3-{1-Ethyl-5-[(tetrahydro-2H-pyran-4-ylamino)methyl]-1H-indol-2-yl}-1-(6-methyl-3-pyridylamino)-2-propyne]	28.5 ng/mL and 16.5 ng/mL and 13.4 ng/mL and 8.05 ng/mL and 22.8 ng/mL and 22.6 ng/mL	88.9 ng/mL and 36.3 ng/mL and 32.5 ng/mL and 78.0 ng/mL and 62.0 ng/mL and 51.5 ng/mL	84.8 ng/mL and 81.1 ng/mL and 34.9 ng/mL and 38.5 ng/mL and 52.9 ng/mL and 58.3 ng/mL	77.5 ng/mL and 46.5 ng/mL and 86.3 ng/mL and 203 ng/mL and 87.6 ng/mL and 73.8 ng/mL	2.71 ng/mL and 1.20 ng/mL and 1.36 ng/mL and 2.31 ng/mL and 2.43 ng/mL and 1.25 ng/mL	16.5 ng/mL and 6.52 ng/mL and 10.4 ng/mL and 6.59 ng/mL and 46.7 ng/mL and 24.4 ng/mL	14.6 ng/mL and 17.1 ng/mL and 27.6 ng/mL and 38.9 ng/mL and 57.5 ng/mL and 24.2 ng/mL	39.0 ng/mL and 39.4 ng/mL and 22.5 ng/mL and 92.1 ng/mL and 65.1 ng/mL and 19.9 ng/mL	29.5 ng/mL and 35.5 ng/mL and 57.2 ng/mL and 121 ng/mL and 135 ng/mL and 67.6 ng/mL	1.63 ng/mL and 2.61 ng/mL and 2.12 ng/mL and 10.6 ng/mL and 7.70 ng/mL and 8.00 ng/mL	BLQ (4×) and 1.01 ng/mL and 1.21 ng/mL	1.6	1254	0.9	1021	18.64	58.20	58.42	95.78	1.88	calculated concentration in rat plasma (individual rats) [12]: BLQ; calculated concentration in rat plasma (individual rats) [13]: BLQ; Average Concentration [23]: 18.52 ng/mL; Average Concentration [24]: 29.98 ng/mL; Average Concentration [25]: 46.33 ng/mL; Average Concentration [26]: 74.30 ng/mL; Average Concentration [27]: 5.44 ng/mL; Average Concentration [28]: 1.11 ng/mL; Average Concentration [12]: BLQ; Average Concentration [13]: BLQ
CCn1c(C#CCNc2ccc(F)cc2)cc2cc(CNC)ccc21 [Compound 5, 3-{1-Ethyl-5-[(methylamino)methyl]-1H-indol-2-yl}-1-(p-fluorophenylamino)-2-propyne]	576 ng/mL and 407 ng/mL and 342 ng/mL and 649 ng/mL and 486 ng/mL and 311 ng/mL	1050 ng/mL and 561 ng/mL and 617 ng/mL and 665 ng/mL and 630 ng/mL and 572 ng/mL	732 ng/mL and 850 ng/mL and 1120 ng/mL and 738 ng/mL and 774 ng/mL and 861 ng/mL	941 ng/mL and 742 ng/mL and 901 ng/mL and 752 ng/mL and 872 ng/mL and 696 ng/mL	218 ng/mL and 144 ng/mL and 208 ng/mL and 266 ng/mL and 246 ng/mL and 151 ng/mL	532 ng/mL and 434 ng/mL and 580 ng/mL and 539 ng/mL and 753 ng/mL and 738 ng/mL	513 ng/mL and 639 ng/mL and 761 ng/mL and 625 ng/mL and 671 ng/mL and 616 ng/mL	789 ng/mL and 675 ng/mL and 859 ng/mL and 1010 ng/mL and 887 ng/mL and 701 ng/mL	619 ng/mL and 737 ng/mL and 807 ng/mL and 812 ng/mL and 881 ng/mL and 772 ng/mL	216 ng/mL and 376 ng/mL and 234 ng/mL and 486 ng/mL and 477 ng/mL and 484 ng/mL	6.57 ng/mL and 22.4 ng/mL and 13.6 ng/mL and 55.0 ng/mL and 27.3 ng/mL and 31.2 ng/mL	17.6	13840	18.1	19943	461.83	682.50	845.83	817.33	205.50	calculated concentration in rat plasma (individual rats) (Compound 2 50 mg/kg PO QD×10, 72 h post tenth dose, 50 mg/kg): 3.25 ng/mL and 2.30 ng/mL and BLQ (3×) and 17.3 ng/mL; calculated concentration in rat plasma (individual rats) (Compound 2 50 mg/kg PO QD×10, 96 h post tenth dose, 50 mg/kg): BLQ (5×) and 1.27 ng/mL; AUC0-24 [29]: 13,840 ng·h/mL; percent of the parent Compound 2 AUC0-24 [29]: 17.6%; Average Concentration [23]: 596.00 ng/mL; Average Concentration [24]: 637.50 ng/mL; Average Concentration [25]: 820.17 ng/mL; Average Concentration [26]: 771.33 ng/mL; Average Concentration [27]: 378.83 ng/mL; Average Concentration [28]: 26.01 ng/mL; Average Concentration [12]: 7.62 ng/mL; Average Concentration [13]: 1.27 ng/mL; AUC0-last [30]: 19,943 ng·h/mL; percent of parent AUC0-last [30]: 18.1%
CCn1c(C#CCNc2ccccc2)cc2cc(CNCc3ccccc3)ccc21 [Compound 4, 1-Anilino-3-[5-(benzylaminomethyl)-1-ethyl-1H-indol-2-yl]-2-propyne]	52.4 ng/mL and 34.7 ng/mL and 28.5 ng/mL and 58.3 ng/mL and 44.0 ng/mL and 31.4 ng/mL	98.8 ng/mL and 56.5 ng/mL and 57.4 ng/mL and 65.7 ng/mL and 58.2 ng/mL and 53.3 ng/mL	72.2 ng/mL and 73.2 ng/mL and 96.5 ng/mL and 63.9 ng/mL and 69.0 ng/mL and 74.3 ng/mL	86.8 ng/mL and 66.7 ng/mL and 79.4 ng/mL and 71.8 ng/mL and 72.4 ng/mL and 63.5 ng/mL	17.9 ng/mL and 11.4 ng/mL and 18.4 ng/mL and 24.0 ng/mL and 22.5 ng/mL and 13.1 ng/mL	48.8 ng/mL and 34.5 ng/mL and 45.1 ng/mL and 46.0 ng/mL and 64.9 ng/mL and 67.1 ng/mL	42.8 ng/mL and 51.0 ng/mL and 62.7 ng/mL and 54.2 ng/mL and 59.7 ng/mL and 52.9 ng/mL	66.1 ng/mL and 54.7 ng/mL and 73.4 ng/mL and 93.1 ng/mL and 83.9 ng/mL and 58.7 ng/mL	53.2 ng/mL and 61.4 ng/mL and 69.2 ng/mL and 67.5 ng/mL and 73.1 ng/mL and 65.4 ng/mL	17.1 ng/mL and 29.4 ng/mL and 19.7 ng/mL and 38.9 ng/mL and 40.7 ng/mL and 40.1 ng/mL	BLQ and 1.97 ng/mL and 1.33 ng/mL and 4.63 ng/mL and 2.28 ng/mL and 2.67 ng/mL	1.6	1241	1.5	1620	41.55	64.98	74.85	73.43	17.88	calculated concentration in rat plasma (individual rats) [12]: BLQ; calculated concentration in rat plasma (individual rats) [13]: BLQ; Average Concentration [23]: 51.07 ng/mL; Average Concentration [24]: 53.88 ng/mL; Average Concentration [25]: 71.65 ng/mL; Average Concentration [26]: 64.97 ng/mL; Average Concentration [27]: 30.98 ng/mL; Average Concentration [28]: 2.58 ng/mL; Average Concentration [12]: BLQ; Average Concentration [13]: BLQ
